Values of other authors, collected in publication PMC4483627 (Marine Drugs, 2015).

Target: T1, rat nAChR α3β4 (Rattus norvegicus, UniProt P04757+P12392)
T1 construct: expressed in transfected cells; host or cells: Xenopus oocytes injected with cRNA
Details: cited from earlier work

T1 sequence (P04757 26-499 limits assumed): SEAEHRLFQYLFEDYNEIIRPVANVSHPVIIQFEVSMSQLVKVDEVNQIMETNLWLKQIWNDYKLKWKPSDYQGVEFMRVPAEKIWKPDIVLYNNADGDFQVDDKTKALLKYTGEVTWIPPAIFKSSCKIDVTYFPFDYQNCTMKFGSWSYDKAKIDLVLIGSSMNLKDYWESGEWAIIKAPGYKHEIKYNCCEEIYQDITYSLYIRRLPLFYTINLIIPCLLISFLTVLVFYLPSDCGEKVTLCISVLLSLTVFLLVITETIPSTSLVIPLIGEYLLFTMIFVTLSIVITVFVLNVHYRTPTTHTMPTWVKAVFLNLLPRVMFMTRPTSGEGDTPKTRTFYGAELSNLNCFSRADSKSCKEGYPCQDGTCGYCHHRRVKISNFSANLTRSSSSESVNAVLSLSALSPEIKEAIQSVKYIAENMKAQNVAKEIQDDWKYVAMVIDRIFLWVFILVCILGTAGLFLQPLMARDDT
T1 sequence (P12392 21-495 limits assumed): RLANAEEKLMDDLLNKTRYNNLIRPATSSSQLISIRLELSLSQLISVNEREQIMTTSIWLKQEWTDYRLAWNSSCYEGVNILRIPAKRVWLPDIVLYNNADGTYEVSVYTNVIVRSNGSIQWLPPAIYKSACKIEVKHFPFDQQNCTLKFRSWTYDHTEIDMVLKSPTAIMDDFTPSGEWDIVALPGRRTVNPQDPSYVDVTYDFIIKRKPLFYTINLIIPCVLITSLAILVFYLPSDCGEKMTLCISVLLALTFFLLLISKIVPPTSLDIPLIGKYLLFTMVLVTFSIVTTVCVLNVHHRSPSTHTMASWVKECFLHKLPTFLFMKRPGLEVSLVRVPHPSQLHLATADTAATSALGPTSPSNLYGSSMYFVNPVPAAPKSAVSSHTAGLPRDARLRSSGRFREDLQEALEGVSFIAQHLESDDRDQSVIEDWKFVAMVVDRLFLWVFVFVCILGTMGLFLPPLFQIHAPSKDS

**Q.** Which IC50 does the source give for “G CC SHP V C SAMS P I- C * (bicyclic or more) [TxID]” here?
**A.** 12.5 nM
